In patent US20100104521A1, “COSMETIC AND/OR PHARMACEUTICAL COMPOSITION COMPRISING AS AN ACTIVE PRINCIPLE AT LEAST ONE PEPTIDE AND USE OF THIS PEPTIDE” (SOCIETE D'EXTRACTION DES PRINCIPES ACTIFS SA (VINCIENCE), priority 2006, published 2010):

System: melanocytes of human skin biopsies
Test: Ex vivo study of the effect of the peptide on the synthesis of melanin (human skin biopsies, Fontana-Masson staining)
Format: cell-based
Conditions: human skin biopsies 6 mm in ex vivo culture, two applications daily, peptide at 1% starting with a 50-ppm solution, 48 hours
Description: The aim of this ex vivo study is to highlight the increase in melanization produced by the peptides according to the invention.
Protocol: Biopsies of human skin 6 mm in diameter are held in an ex vivo culture in the presence of a specific medium (1 g/L DMEM, Ham's F-12, SVF, and antibiotics) on inserts deposited on 6-well plates. […] The duration of the treatment is 48 hours. The biopsies are subsequently fixed in 9% formaldehyde and NaCl (150 mM) for 10 hours and then enclosed in paraffin. Thin-sections of the skin 3 μm thick are then made, and the melanin is specifically stained by the Fontana-Masson technique. […] Conclusions: The peptide of sequence of SEQ ID No. 4 induces a strong increase in the synthesis of melanin by the melanocytes and stimulates the entire process of melanin distribution in the epidermis.

## Trp-Lys-Leu-Asp (WKLD) [SEQ ID No. 4]
Fontana-Masson staining
  location / distribution of melanin in the epidermis: located in the basal layer but is also transported into the supra-basal layers
Versus biopsies without application
  intensity of melanin coloration of skin thin-sections (Fontana-Masson technique): coloration of clearly increased intensity
